Laboratory results reported in publication PMC12040169 (PLOS Biology, 2025).

assay: in vitro; details: human, hela cells, % viability

Row | SMILES | viability at 28.5 h, 10 µM
1 | CCOC(=O)c1ccccc1NC(=O)N(Cc1ccc2ccccc2c1)CC1CCNCC1 [CBK049769] | 98.3%
2 | N#CCCCN1CCC(Oc2nccnc2OCc2cc(Cl)cc(Cl)c2)CC1 [CBK153634] | 93.9%
3 | O=C1N/C(=C/c2cccs2)C(=O)N1Cc1ccccc1F [CBK265601] | 109%
4 | CC(Cn1cncn1)NC(=O)c1cccc(S(=O)(=O)NC2CCCC2)c1 (stereo not shown) [CBK304209] | 89%
5 | Cc1ccc2[nH]c(Cc3ccc(NC(=O)c4nc5ccccc5n(C)c4=O)cc3)nc2c1 [CBK285802] | 83.8%
6 | CCCc1nc(NC(C)=O)c(C#N)c(-c2ccco2)c1CC [CBK018074] | 100%
7 | Cc1ccc2nc(NC(=O)COc3ccccc3)sc2c1 [CBK287335] | 91%
8 | COc1ccc(C(=O)NC(=S)Nc2ccccc2N2CCN(C)CC2)cc1[N+](=O)[O-] [CBK268292C] | 87%
9 | CS(=O)(=O)c1ccc(-n2nnnc2CN2CCC3(CCCC3)C2)cc1 [CBK306178] | 89.4%
10 | COc1cc(C#N)ccc1OCc1ccc2nc(C(F)(F)F)cc(Cl)c2c1 [CBK002589] | 98.3%
11 | CN1CCCN(c2nccnc2-c2cccs2)CC1 [CBK088823] | 98.5%
12 | Cc1cc(-c2sc(N)nc2-c2cccs2)on1 [CBK284492] | 87.9%
13 | Sc1nnc(-c2ccncc2)n1/N=C/c1cccnc1 [CBK265336] | 96.6%
14 | CCCOC1CCCN(S(=O)(=O)c2cnc3ccsc3c2)C1 (stereo not shown) [CBK306367] | 75.5%
15 | CCn1c2ccccc2c2cc(CN3CCN(S(=O)(=O)c4ccc(NC(C)=O)cc4)CC3)ccc21 [CBK264248] | 94.1%
16 | NCCN(C(=O)CCc1cc(C(F)(F)F)cc(C(F)(F)F)c1)c1ccc2c(c1)OCO2 [CBK000701T] | 105%
17 | O=C1CC(N(O)c2ccccc2)C(=O)N1c1ccc(F)cc1 (stereo not shown) [CBK288419] | 104%
18 | Cc1cccc(/N=C(\N)Nc2nc(=O)cc(C)[nH]2)c1 [CBK288144] | 93.1%
19 | CN1C(=O)COc2ccccc2CCCC[C@@H]2[C@H]1CCCN2C(=O)Cn1ccnc1 [CBK292152] | 110%
20 | O=C(Cc1ccccc1)N/N=C/c1nnco1 [CBK021274] | 121%
21 | CCCCCn1c(-c2ccccc2)n[nH]c1=O [CBK013288] | 83.3%
22 | CCCN1CCN(c2ncnc3scc(C4COc5ccccc5O4)c23)CC1 (stereo not shown) [CBK266590] | 102%

Row | SMILES | viability at 28.5 h, 10 µM
23 | CCNC(=O)c1ccccc1NC(=O)C(C)Oc1ccccc1 (stereo not shown) [CBK269933] | 85.8%
24 | O=c1n(-c2ccc(OC(F)(F)F)cc2)ccn1S(=O)(=O)c1ccc(Cl)c(Cl)c1 [CBK106656] | 94.7%
25 | O=C(Cc1c[nH]c2ccccc12)N1CCc2ccccc21 [CBK200366] | 107%
26 | O=C(C1CCCCC1)N1CCC(c2n[nH]c3ncccc23)CC1 [CBK284905] | 85.7%
27 | NCC1CCN(c2cc(C(F)(F)F)c3scc(C(=O)NCCC4=CCCCC4)c3n2)CC1 [CBK028475] | 83.2%
28 | CC(C)NC(=O)Cn1nc(-c2cc3c(s2)CCC3)oc1=O [CBK283801] | 88.3%
29 | Cc1ccc(-c2cc(C3CCN(C(=O)c4cnn(C)c4)C3)[nH]n2)cc1 (stereo not shown) [CBK285266] | 85.4%
30 | CCNC(=O)c1ccc(-n2cccn2)c(C#Cc2ccccn2)c1 [CBK283125] | 111%
31 | COc1ccc(C(C)C)cc1-c1cncc(N2CCCCC2CCO)n1 (stereo not shown) [CBK037897] | 94.4%
32 | COc1ccc(CCNS(=O)(=O)N(C)C)cc1 [CBK264348] | 93%
33 | CCn1ncc(Cn2cc(NC(=O)C3CCCCC3C(=O)O)cn2)c1C (stereo not shown) [CBK286859] | 98.9%
34 | c1ccc(OCCOc2nccnc2-c2cc3ccccc3s2)cc1 [CBK106787] | 92.3%
35 | COCC1(C(=O)N2CC(=O)N(c3ccc(Cl)cc3)CC2C)CCC1 (stereo not shown) [CBK306674] | 89.2%
36 | c1ccc(CC2CCN(CCC(c3ccccc3)c3ccccc3)CC2)cc1 [CBK126389] | 102%
37 | CN1CCN(S(=O)(=O)c2ccc(F)cc2)CC1 [CBK050491] | 88%
38 | Cn1ncnc1CNc1ccc(S(=O)(=O)N2CCCCCC2)cc1 [CBK305278] | 90.1%
39 | CN(C)C(=O)Cn1cccc2cc(-c3ccc(F)cc3)nc1-2 [CBK285349] | 105%
40 | Cc1cc(COc2nc3ccccc3nc2NCCCCO)no1 [CBK173985] | 94.1%
41 | CN(C)CCN(Cc1ccccc1)Cc1ccc([N+](=O)[O-])cc1 [CBK261929] | 87.8%
42 | O=C(COc1ccccc1)NC(/C=C/c1ccccc1)c1cc(Cl)c2cccnc2c1O (stereo not shown) [CBK263994] | 104%
43 | Cc1ccc(-c2noc([C@@H]3Cc4[nH]cnc4CN3C(=O)c3cccs3)n2)cc1 [CBK288957] | 82.2%
44 | CS(=O)(=O)N1CCc2cc(-c3csc(NCC(F)(F)F)n3)ccc21 [CBK305650] | 95.4%

Row | SMILES | viability at 28.5 h, 10 µM
45 | CC(=O)N(C)c1ncc(Br)cc1C(=O)NCc1nc2ccccc2[nH]1 [CBK076522] | 95.9%
46 | O=C(CSc1nnc(-c2ccc(F)cc2)n1-c1ccccc1)Nc1cccc2ccccc12 [CBK267592] | 89.8%
47 | O=C(O)c1cc(NC(=O)C2CCCO2)ccc1O (stereo not shown) [CBK269815] | 99%
48 | COc1ccc(C(NC(=O)c2ccc(Cn3nc(C)cc3C)o2)c2ccccc2)cc1 (stereo not shown) [CBK285578] | 87.8%
49 | Cc1ccc(C)c(C2CCCN2C(=O)c2ccc(=O)n(CC(=O)Nc3ccc(F)cc3)c2)c1 (stereo not shown) [CBK286495] | 93.4%
50 | Cc1noc([C@@H]2C[C@H](NC(=O)Nc3cccc(C#N)c3)CN2C)n1 [CBK288873] | 104%
51 | CCCCC(=O)N(C)c1c(CC)nc2c(OCc3ccc(C#N)cc3)cccn12 [CBK147779] | 94.6%
52 | COC(=O)c1cc(C)sc1NC(=S)Nc1ccccc1[N+](=O)[O-] [CBK267047] | 99.9%
53 | OCCCn1c(-c2ccc(Cl)cc2)cn2c3ccccc3nc12 [CBK262900] | 103%
54 | COC(=O)CCC(=O)NNC(=O)c1cccc(Br)c1 [CBK261606] | 107%
55 | c1cnn(CC2CCCCN2c2ncnc3ccsc23)c1 (stereo not shown) [CBK304843] | 88.3%
56 | CS(=O)(=O)N(CC(=O)N1CCN(Cc2ccc3c(c2)OCO3)CC1)c1cccc(C(F)(F)F)c1 [CBK265329] | 77.7%
57 | CC(C)C(=O)N1CCCC1c1cc2n(n1)[C@@H](C(F)(F)F)C[C@@H](C)N2 (stereo partly shown) [CBK282966] | 106%
58 | Cc1oc(-c2ccccc2)cc1C(=O)Nc1c(F)cc(F)cc1OC1CCNCC1 [CBK050326T] | 89.8%
59 | CCC(CN1CCOCC1)NC(=O)Cc1coc2cc(C)cc(C)c12 (stereo not shown) [CBK282812] | 103%
60 | CCC(C)C(NC(=O)Cc1c[nH]c2ccccc12)C(=O)O (stereo not shown) [CBK286720] | 91%
61 | CN(C)S(=O)(=O)c1ccc(C(=O)C2=C(O)C(=O)N(Cc3cccnc3)C2c2ccc(F)cc2)cc1 (stereo not shown) [CBK264715] | 94%
62 | c1csc(Sc2nccnc2N2CCCC2)n1 [CBK093805] | 107%
63 | Nc1ncnc2c1ncn2[C@@H]1O[C@H](CCl)[C@H](O)C1O (stereo partly shown) [CBK201252] | 98.8%
64 | Fc1ccc(-c2cncc(NCCc3cccnc3)n2)cc1Cl [CBK065745] | 91.3%
65 | O=C(NC1CC1)c1cnoc1-c1ccccc1 [CBK154935] | 106%
66 | Cc1ccc(C(=O)C2=C(O)C(=O)N(CCCN3CCOCC3)C2c2ccccn2)o1 (stereo not shown) [CBK269187] | 89.7%

Row | SMILES | viability at 28.5 h, 10 µM
67 | N=c1n(CC(=O)c2ccc(Br)s2)c2ccccc2n1Cc1ccccc1 [CBK262482B] | 91.4%
68 | Oc1cc(C(F)(F)F)nc(NCc2ccc(-c3ccccc3)cc2)n1 [CBK002395] | 105%
69 | Cc1nn(C)cc1C(=O)N1CCC2(C/C=C/CCOc3ccccc3C(=O)NCCCNC2=O)CC1 [CBK292154] | 110%
70 | O=C(CSc1ccccc1)Nc1nccs1 [CBK288213] | 109%
71 | COc1ccc(-c2cn(-c3cccc(NC(C)=O)c3)nn2)cc1 [CBK113008] | 97.2%
72 | Cc1csc(C(Cc2cccs2)NC(=O)C2CCC(=O)N2)n1 (stereo not shown) [CBK285056] | 104%
73 | COc1cccc(-n2c(=O)[nH]c3c(C(N)=O)nc(-c4ccccc4)nc32)c1 [CBK287740] | 121%
74 | O=C(CC1NC(=O)NC1=O)Nc1ccc(C(=O)O)cc1 (stereo not shown) [CBK267355] | 99.1%
75 | CC(C)NC(=O)CC[C@@H]1CNC(=O)[C@@H]2C[C@H](NC(=O)c3ccccc3)CN12 [CBK289002] | 90.9%
76 | O=C(Nc1nc(-c2ccccc2)cs1)c1ccc(Br)cc1 [CBK068003] | 82.4%
77 | CCOc1cc(S(=O)(=O)NCCCn2ccnc2)ccc1Cl [CBK269874] | 89%
78 | COc1cc(CN2CCNCC2)c2ccn(S(=O)(=O)c3ccccc3Cl)c2c1 [CBK144483T] | 91.9%
79 | O=C1c2cccc3cccc(c23)C(=O)N1CCCSc1nnc(-c2ccncc2)n1-c1ccccc1 [CBK268684] | 91%
80 | Cc1ccc2c(c1)C1(CC(=O)N(C)C1=O)C(=O)N2CCCOc1ccccc1 (stereo not shown) [CBK075496] | 98.2%
81 | N#Cc1ccc(N2C(=O)c3ccccc3S2(=O)=O)cc1 [CBK113195] | 113%
82 | Cc1cccc2c(C(=O)OCC(=O)c3ccc([N+](=O)[O-])cc3)cc(-c3ccc(Cl)cc3)nc12 [CBK264088] | 94.5%
83 | COc1ccccc1Cn1nc2nnc(-c3ccc(F)cc3)c(-c3ccc(F)cc3)n2c1=O [CBK286184] | 97.7%
84 | Cn1c(=O)n(C)c2cc(CNC(=O)COCC3CCCCO3)ccc21 (stereo not shown) [CBK307061] | 109%
85 | CC1=C[C@@H](CNC(=O)Nc2ccccc2)[C@H](C(C)C)C[C@H]1CC(=O)N1CCN(C)CC1 [CBK289048] | 121%
86 | C[n+]1cn(/N=C/c2ccco2)cn1 [CBK028562I] | 104%

same assay, conditions: human, hela cells, % viability, bulk resorufin, single well

Row | SMILES | viability at 28.5 h, 10 µM
87 | O=C(CCC1C(=O)NC(=O)NC1=O)Nc1cccc(-c2nc3ccccc3s2)c1 [CBK285844] | 105%
88 | CCOc1ccc(N2C(=O)NC(=O)/C(=C/c3cn(CC(=O)Nc4ccccc4)c4ccccc34)C2=O)cc1 [CBK263544] | 90.2%
